Experimental data taken from US20250161273A1, “PHARMACEUTICAL COMPOSITION COMPRISING DIPHENYLDIAZOLE DERIVATIVES AND METHODS OF USE” (MODAG GMBH, priority 2022, published 2025).

Experiments:
[1] = 28-day toxicity study in rats; assay type: in vivo
From the text: Safe starting dose & exposure limit justification: This trial followed the recommendations of the EMA (European Medicines Agency) (EMEA/CHMP/SWP/28367/07 Rev. 1; 20 Jul. 2017) and the FDA (Food and Drug Administration) (Guidance for Industry: Estimating the Maximum Safe Starting Dose in Initial Clinical Trials for Therapeutics in Adult Healthy Volunteers. U.S. Department of Health and Human Services Food and Drug Administration Center for Drug Evaluation and Research (CDER) July 2005) for dose finding in a first-in-human study. The safe starting dose was set based on toxicity studies in animals. In a 28-day toxicity study in rats, the no-observed-adverse-effect-level (NOAEL) was determined to be 50 mg/kg/day (human equivalent dose of 8.1 mg/kg). The dose range of the current trial was designed to start at 50 mg. Escalation between doses was planned to be flexible depending on emerging results but not to exceed an increment of 2-fold.

[2] = phase 1 first-in-human trial, safety and tolerability; assay type: in vivo
Procedure: Anle138b was studied in a single-centre, double-blind, randomised, placebo-controlled single ascending dose (SAD) and multiple ascending dose (MAD) study in healthy subjects. Eligible participants were randomly assigned (1:1 for sentinel subjects and 1:5 for main group) to placebo or anle138b (dose ranging from 50 mg to 300 mg per day), respectively. In addition, the effect of food on the pharmacokinetics (PK) of anle138b in healthy subjects was examined at doses of 150 mg per day (FES, food effect study). Participants were randomized to treatment sequence (fed→fasted) or (fasted→fed). Treatment for the SAD, MAD and FES arms of the study was administered orally in hard gelatin capsules containing either 10 mg or 30 mg of anle138b with excipient (i.e., lauroyl polyoxyl-32 glycerides) or excipient only. The primary endpoints were safety and tolerability, the secondary endpoint was pharmacokinetics. Data from all randomized individuals were evaluated. [Clinicaltrials.gov-identifier: NCT04208152. EudraCT-number: 2019-004218-33] […]
In SAD, subjects received a single dose of anle138b or placebo after fasting from all food and drink (except water) for a minimum of 8 h prior to dosing. […] The following data were analyzed: Adverse events, vital signs, safety laboratory, ECG, physical examinations, plasma concentrations of anle138b with interim PK parameter estimations (Tmax, Cmax, AUC0-24, AUC0-tau, AUC0-last and T½, where applicable). […]
Outcome measures: The primary objective was to assess the safety and tolerability of single (SAD) and multiple (MAD) ascending doses of anle138b to healthy subjects in the fasted state and to assess the safety and tolerability of single doses of anle138b in both the fasted and fed state (FES). To this end, adverse events (AEs), clinical laboratory tests, vital signs, electrocardiograms (ECGs), QT interval corrected for heart rate using Fridericia's formula (QTcF), and physical examination findings were recorded. […]

Brc1cccc(-c2cc(-c3ccc4c(c3)OCO4)n[nH]2)c1 [anle138b, 3-(1,3-benzodioxol-5-yl)-5-(3-bromophenyl)-1H-pyrazole]
no-observed-adverse-effect-level (NOAEL) ([1]; 28-day toxicity study in rats): 50 mg/kg/day | NOAEL at 28 days ([1]; rat, in vivo): 8.1 mg/kg | safety and tolerability (in words) ([2]; food effect study, 150 mg, fasted and fed conditions): safe and well tolerated | serious adverse events (in words) ([2]; healthy subjects, any part of the study): no serious adverse events | safety and tolerability (in words) ([2]; healthy subjects, up to 300 mg daily for up to 7 consecutive days): safe and well tolerated at all dose levels
